According to ChEMBL document CHEMBL1152560, “Substituted 2-arylbenzothiazoles as kinase inhibitors: hit-to-lead optimization” (Bioorg Med Chem, 2009):

What was measured:
[1] = molecular target: Serine/threonine-protein kinase PAK 5 (Homo sapiens) (UniProt Q9P286); experiment: Residual activity of PAK7 at 1 uM by microplate scintillation counting
[2] = molecular target: T1, cGMP-dependent protein kinase 1 (Homo sapiens) (UniProt Q13976); experiment: Residual activity of PRKG1 at 1 uM by microplate scintillation counting
T1 sequence (whole entry): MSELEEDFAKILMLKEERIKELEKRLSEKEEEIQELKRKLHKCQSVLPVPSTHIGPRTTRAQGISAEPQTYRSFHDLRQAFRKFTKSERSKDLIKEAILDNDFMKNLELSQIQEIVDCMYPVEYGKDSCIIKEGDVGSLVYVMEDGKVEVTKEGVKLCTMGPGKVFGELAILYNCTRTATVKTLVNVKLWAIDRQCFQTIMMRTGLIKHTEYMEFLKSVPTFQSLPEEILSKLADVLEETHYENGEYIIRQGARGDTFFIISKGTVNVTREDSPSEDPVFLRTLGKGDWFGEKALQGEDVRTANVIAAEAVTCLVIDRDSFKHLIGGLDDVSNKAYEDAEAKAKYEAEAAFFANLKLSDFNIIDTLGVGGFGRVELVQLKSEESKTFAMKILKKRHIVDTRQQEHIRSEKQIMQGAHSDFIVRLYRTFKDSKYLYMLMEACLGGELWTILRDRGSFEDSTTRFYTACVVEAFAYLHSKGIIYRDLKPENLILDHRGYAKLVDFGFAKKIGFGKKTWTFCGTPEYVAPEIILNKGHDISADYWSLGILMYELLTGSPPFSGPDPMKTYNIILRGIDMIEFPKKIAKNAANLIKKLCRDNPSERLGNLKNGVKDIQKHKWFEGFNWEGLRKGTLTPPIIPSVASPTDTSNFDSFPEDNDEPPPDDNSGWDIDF

[3] = molecular target: Ribosomal protein S6 kinase alpha-1 (Homo sapiens) (UniProt Q15418); experiment: Residual activity of RPS6KA1 at 1 uM by microplate scintillation counting
[4] = molecular target: Mitogen-activated protein kinase kinase kinase 8 (Homo sapiens) (UniProt P41279); experiment: Residual activity of COT at 10 uM by microplate scintillation counting
[5] = molecular target: T2, Myotonin-protein kinase (Homo sapiens) (UniProt Q09013); experiment: Residual activity of DMPK at 10 uM by microplate scintillation counting
T2 sequence (whole entry): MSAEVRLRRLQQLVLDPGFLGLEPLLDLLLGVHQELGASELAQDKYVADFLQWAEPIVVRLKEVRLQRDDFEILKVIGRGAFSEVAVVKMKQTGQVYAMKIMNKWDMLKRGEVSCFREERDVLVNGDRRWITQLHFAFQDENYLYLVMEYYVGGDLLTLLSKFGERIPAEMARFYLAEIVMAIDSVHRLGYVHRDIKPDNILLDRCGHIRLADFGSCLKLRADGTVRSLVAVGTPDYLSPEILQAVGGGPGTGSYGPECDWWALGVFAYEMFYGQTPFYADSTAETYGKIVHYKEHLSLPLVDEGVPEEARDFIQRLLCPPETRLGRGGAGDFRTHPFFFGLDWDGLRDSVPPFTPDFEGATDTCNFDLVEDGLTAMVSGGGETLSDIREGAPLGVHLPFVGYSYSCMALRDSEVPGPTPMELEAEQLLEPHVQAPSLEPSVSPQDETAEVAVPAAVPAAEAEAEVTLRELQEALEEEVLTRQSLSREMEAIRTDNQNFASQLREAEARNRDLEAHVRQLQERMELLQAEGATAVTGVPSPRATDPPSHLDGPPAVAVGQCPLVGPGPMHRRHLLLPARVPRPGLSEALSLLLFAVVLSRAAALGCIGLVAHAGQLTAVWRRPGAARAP

[6] = molecular target: Insulin receptor-related protein (Homo sapiens) (UniProt P14616); experiment: Residual activity of INSRR at 10 uM by microplate scintillation counting
[7] = molecular target: ALK tyrosine kinase receptor (Homo sapiens) (UniProt Q9UM73); experiment: Residual activity of ALK at 1 uM by microplate scintillation counting
[8] = tested on: Serine/threonine-protein kinase B-raf (Homo sapiens), P15056 [V600E]; experiment: Residual activity of B-RAF V600E mutant at 10 uM by microplate scintillation counting
[9] = molecular target: T3, Calcium/calmodulin-dependent protein kinase type IV (Homo sapiens) (UniProt Q16566); experiment: Residual activity of CAMK4 at 10 uM by microplate scintillation counting
T3 sequence (whole entry): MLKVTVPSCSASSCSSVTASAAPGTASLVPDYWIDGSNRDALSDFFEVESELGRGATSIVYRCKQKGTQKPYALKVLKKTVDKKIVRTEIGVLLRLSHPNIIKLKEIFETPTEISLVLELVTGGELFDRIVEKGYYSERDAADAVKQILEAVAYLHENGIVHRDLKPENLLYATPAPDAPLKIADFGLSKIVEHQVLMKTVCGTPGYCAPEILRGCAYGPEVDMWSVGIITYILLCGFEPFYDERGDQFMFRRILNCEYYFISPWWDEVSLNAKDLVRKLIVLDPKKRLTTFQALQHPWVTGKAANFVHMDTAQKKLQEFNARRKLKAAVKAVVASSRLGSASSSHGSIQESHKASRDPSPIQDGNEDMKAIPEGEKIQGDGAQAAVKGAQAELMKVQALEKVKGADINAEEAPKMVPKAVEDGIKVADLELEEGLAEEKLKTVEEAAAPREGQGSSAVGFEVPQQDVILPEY

[10] = molecular target: Activin receptor type-1-like (Homo sapiens) (UniProt P37023); experiment: Residual activity of ACV-RL1 at 0.1 uM by microplate scintillation counting
[11] = molecular target: T4, Serine/threonine-protein kinase Sgk1 (Homo sapiens) (UniProt O00141); experiment: Residual activity of SGK1 at 0.1 uM by microplate scintillation counting
T4 sequence (whole entry): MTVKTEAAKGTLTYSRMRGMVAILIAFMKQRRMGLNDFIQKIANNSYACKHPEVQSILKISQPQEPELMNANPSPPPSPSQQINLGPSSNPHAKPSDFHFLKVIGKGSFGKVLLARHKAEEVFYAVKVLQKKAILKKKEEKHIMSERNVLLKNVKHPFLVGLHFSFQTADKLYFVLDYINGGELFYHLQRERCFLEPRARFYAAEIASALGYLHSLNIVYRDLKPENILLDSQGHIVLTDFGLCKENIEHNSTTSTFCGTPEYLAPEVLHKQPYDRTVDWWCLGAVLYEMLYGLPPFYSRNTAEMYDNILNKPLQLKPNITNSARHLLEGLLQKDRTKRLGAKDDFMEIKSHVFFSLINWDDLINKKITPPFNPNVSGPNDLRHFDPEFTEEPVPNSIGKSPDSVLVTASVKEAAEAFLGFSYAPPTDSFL

Serine/threonine-protein kinase B-raf (Homo sapiens), P15056 [V600E], sequence (P15056 whole entry V600E): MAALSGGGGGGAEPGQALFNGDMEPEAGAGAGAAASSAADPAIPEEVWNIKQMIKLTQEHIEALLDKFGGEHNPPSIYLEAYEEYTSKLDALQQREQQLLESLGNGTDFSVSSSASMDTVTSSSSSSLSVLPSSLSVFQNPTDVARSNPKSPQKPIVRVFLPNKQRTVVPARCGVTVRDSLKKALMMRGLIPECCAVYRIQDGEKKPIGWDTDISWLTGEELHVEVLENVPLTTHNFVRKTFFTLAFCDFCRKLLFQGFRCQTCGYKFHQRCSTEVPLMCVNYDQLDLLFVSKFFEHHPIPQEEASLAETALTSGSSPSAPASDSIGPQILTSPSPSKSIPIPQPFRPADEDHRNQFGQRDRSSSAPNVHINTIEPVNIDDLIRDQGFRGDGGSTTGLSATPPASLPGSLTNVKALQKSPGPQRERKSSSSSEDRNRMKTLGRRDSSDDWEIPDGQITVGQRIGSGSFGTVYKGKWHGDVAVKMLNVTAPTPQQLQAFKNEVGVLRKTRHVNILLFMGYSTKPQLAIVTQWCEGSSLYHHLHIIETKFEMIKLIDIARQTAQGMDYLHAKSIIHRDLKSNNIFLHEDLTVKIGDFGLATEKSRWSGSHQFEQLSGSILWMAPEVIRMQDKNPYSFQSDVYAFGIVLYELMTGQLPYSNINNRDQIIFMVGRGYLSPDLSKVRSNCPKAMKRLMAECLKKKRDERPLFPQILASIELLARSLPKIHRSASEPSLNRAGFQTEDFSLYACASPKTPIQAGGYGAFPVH
Insulin receptor-related protein (Homo sapiens), sequence (P14616 27-742 limits assumed): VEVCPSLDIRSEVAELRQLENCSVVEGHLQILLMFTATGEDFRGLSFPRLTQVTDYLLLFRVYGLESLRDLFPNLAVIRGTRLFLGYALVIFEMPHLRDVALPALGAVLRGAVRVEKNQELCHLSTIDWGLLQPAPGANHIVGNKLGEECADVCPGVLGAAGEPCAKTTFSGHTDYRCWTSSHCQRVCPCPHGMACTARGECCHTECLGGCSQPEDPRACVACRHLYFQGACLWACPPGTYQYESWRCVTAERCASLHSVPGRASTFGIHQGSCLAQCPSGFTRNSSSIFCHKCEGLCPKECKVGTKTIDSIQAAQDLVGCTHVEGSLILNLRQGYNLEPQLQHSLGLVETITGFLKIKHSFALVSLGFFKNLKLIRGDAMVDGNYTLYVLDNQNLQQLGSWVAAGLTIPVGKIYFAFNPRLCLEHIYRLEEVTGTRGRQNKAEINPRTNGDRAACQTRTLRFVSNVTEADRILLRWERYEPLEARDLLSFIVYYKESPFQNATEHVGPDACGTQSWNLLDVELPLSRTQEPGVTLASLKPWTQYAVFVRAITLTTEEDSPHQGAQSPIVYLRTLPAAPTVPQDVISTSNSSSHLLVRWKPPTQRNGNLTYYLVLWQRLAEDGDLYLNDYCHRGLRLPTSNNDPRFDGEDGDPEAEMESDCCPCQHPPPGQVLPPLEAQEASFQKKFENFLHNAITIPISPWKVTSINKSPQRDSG
Insulin receptor-related protein (Homo sapiens), sequence (P14616 747-1297 limits assumed): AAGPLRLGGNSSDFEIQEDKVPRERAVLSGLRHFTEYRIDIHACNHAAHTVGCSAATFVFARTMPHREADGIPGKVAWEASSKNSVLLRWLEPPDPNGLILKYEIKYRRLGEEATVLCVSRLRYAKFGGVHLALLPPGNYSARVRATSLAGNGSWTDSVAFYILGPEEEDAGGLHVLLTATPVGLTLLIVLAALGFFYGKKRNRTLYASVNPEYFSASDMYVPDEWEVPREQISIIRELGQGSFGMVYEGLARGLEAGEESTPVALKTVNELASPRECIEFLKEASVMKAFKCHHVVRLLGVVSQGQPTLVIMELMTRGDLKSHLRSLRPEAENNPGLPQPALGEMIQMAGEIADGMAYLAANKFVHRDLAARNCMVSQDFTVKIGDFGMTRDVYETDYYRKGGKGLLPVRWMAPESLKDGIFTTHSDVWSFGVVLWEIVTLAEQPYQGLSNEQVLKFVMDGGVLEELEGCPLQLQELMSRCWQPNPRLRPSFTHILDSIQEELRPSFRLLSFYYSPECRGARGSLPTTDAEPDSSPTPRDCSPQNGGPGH
Activin receptor type-1-like (Homo sapiens), sequence (P37023 whole entry): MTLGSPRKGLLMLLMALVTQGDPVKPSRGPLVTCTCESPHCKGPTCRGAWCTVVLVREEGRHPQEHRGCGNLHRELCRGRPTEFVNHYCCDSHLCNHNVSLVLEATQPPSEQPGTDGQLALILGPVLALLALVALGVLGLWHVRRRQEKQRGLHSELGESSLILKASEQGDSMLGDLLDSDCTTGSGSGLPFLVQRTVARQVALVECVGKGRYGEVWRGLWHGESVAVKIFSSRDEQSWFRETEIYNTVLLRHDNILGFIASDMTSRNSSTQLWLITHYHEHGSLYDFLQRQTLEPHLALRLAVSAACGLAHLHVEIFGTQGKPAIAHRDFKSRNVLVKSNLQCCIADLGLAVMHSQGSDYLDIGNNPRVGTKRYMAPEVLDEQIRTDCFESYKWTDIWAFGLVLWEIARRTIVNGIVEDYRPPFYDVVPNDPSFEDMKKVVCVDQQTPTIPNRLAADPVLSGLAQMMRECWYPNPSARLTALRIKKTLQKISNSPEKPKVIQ
ALK tyrosine kinase receptor (Homo sapiens), sequence (Q9UM73 19-1620 limits assumed): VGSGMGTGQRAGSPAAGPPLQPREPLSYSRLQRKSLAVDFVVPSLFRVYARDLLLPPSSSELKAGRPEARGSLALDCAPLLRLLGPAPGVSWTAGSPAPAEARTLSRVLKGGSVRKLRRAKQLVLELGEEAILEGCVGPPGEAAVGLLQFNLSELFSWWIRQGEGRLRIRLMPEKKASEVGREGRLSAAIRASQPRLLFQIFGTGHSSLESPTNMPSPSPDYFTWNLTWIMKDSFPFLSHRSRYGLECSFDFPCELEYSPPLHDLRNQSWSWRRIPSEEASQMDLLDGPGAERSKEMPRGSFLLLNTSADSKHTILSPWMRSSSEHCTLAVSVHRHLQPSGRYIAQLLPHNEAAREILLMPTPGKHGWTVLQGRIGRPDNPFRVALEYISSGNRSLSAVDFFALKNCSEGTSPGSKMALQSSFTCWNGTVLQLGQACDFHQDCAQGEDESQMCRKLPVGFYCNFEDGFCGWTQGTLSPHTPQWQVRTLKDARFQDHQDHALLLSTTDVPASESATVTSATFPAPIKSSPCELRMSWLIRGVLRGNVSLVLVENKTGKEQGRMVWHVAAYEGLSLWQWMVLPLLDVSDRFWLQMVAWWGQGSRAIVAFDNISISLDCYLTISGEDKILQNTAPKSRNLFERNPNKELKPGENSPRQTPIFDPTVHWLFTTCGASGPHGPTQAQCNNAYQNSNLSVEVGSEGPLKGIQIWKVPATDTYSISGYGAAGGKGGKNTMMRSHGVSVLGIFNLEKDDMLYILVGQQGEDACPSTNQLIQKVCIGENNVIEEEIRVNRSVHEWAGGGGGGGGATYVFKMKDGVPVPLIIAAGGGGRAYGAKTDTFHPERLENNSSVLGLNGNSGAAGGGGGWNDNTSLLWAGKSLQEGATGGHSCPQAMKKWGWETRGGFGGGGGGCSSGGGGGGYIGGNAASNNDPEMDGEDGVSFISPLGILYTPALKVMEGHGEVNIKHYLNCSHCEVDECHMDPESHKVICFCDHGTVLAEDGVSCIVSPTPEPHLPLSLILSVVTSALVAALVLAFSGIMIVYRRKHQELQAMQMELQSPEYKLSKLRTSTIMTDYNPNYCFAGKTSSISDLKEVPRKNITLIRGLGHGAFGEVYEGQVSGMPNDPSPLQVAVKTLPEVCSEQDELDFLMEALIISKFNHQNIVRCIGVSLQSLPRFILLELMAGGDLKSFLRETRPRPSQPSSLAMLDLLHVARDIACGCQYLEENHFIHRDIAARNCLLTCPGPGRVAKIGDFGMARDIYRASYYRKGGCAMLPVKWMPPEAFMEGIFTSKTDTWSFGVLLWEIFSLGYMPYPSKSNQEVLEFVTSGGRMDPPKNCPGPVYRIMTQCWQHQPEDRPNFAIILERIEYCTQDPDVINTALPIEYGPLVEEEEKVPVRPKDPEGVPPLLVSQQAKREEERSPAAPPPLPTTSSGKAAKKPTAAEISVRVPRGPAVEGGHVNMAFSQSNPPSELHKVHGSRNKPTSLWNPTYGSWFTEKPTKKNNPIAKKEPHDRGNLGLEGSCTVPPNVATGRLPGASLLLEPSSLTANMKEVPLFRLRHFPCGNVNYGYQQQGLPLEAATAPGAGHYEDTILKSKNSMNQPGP
Serine/threonine-protein kinase PAK 5 (Homo sapiens), sequence (Q9P286 whole entry, looked up): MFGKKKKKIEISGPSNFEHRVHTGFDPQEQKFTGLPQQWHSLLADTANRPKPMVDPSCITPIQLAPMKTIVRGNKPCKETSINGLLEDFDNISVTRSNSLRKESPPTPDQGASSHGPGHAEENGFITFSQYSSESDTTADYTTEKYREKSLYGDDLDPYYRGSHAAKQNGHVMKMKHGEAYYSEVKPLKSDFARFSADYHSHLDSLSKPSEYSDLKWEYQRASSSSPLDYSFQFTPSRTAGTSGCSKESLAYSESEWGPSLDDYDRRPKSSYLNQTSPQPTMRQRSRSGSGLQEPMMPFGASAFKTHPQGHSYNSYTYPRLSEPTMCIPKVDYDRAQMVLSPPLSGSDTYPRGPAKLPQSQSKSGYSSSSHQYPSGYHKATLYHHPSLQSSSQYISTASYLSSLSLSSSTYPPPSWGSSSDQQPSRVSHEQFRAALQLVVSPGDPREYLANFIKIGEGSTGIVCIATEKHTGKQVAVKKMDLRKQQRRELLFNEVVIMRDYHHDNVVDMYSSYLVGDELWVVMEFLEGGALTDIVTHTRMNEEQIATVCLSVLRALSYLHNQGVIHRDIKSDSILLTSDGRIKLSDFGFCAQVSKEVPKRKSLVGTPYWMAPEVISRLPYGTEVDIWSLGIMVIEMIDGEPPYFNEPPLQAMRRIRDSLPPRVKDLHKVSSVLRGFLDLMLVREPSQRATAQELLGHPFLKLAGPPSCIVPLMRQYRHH

residual activity [1] | residual activity [2] | residual activity [3] | residual activity [4] | residual activity [5] | residual activity [6] | residual activity [7] | residual activity [8] | residual activity [9] | residual activity [10] | residual activity [11] | SMILES
83% | 101% | 74% | 96% | 118% | 43% | 169% | 58% | 88% | 96% | 96% | COc1cc2c(Oc3ccc(-c4nc5ccccc5s4)cc3)ncnc2cc1OCCCN1CCCC1
77% | 87% | 78% | 115% | 88% | 51% | 171% | 57% | 227% | 91% | 85% | COc1cc2c(Oc3ccc(-c4nc5ccccc5s4)cc3)ncnc2cc1OCCCN1CCN(C)CC1
83% | 97% | 88% | 94% | 166% | 7% | 178% | 81% | 211% | 92% | 98% | COc1cc2c(Oc3ccc(-c4nc5ccccc5s4)cc3F)ncnc2cc1OCCCN1CCN(C)CC1
